Experimental data as given in patent US11572590B2, “Methods for evaluating tumor cell spheroids using 3D microfluidic cell culture device” (Dana-Farber Cancer Institute, Inc., priority 2017, dated 2023).
Read-outs that look alike come from different tables or passages of the source.

Assays:
off-target kinases [1] = biological target: off-target kinases (Homo sapiens, UniProt P12931); experiment: SelectScreen Kinase Profiling, single point inhibition and IC50 for off-target kinases; assay type: biochemical; parameters: other: SRC N1; 1000 μM; ATP Km app; ZLYTE; conditions: SRC N1, ATP Km app, ZLYTE
Chain of off-target kinases (Homo sapiens, UniProt P12931) (P12931 1-542 isoform P12931-2): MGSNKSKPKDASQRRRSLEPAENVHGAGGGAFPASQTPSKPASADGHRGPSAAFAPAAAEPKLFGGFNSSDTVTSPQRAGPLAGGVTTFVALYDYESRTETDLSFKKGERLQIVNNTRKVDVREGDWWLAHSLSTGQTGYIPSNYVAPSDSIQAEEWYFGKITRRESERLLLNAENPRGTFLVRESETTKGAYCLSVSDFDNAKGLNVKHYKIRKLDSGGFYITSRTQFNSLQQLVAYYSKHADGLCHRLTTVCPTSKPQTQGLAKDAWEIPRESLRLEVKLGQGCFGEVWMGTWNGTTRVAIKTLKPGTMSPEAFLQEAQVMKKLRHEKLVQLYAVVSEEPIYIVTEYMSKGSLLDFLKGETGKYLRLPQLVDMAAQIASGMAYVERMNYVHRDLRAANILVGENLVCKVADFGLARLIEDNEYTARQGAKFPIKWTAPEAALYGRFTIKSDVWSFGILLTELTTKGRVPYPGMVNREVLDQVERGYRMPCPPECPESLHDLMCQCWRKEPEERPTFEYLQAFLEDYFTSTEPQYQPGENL
Protocol: (§1) Biochemical single point inhibition and IC50 concentrations for TBK1, IKKε (IKBKE), and off-target kinases were determined at ThermoFisher Scientific using SelectScreen Kinase Profiling Services (Madison, Wis., USA) (Tables S4A and S4B-1-7). To determine cellular potency, the human colorectal cancer carcinoma cell line HCT116 (ATCC, Manassas, Va.) was maintained in T175 flasks in complete RPMI medium; RPMI 1640 supplemented with 10% FBS, 1× Penicillin-Streptomycin solution and 1×MEM (non-essential amino acids). HCT116 cells were grown to 90-95% confluency in T175 flasks containing complete RPMI medium and transfected in bulk using Lipofectamine 2000 (Invitrogen, Carlsbad, Calif.) with 70 μg of ISG54-luciferase reporter plasmid (Elim Biopharmaceuticals Inc., Hayward, Calif.). The reporter plasmid contains a luciferase gene expression cassette under the transcriptional regulation of the promoter of the human interferon stimulated gene 54 (ISG54). Transfection of the cells was allowed to take place for 6 hours, after which the cells were harvested by treatment with 0.25% trypsin EDTA (Corning Inc., Corning, N.Y.). Trypsinized cells were added to 384-well poly-d-lysine treated black clear bottom tissue culture assay plates (Greiner Bio-One GmbH, Kremsmünster, Austria) at a density of 20,000 cells/well in 80 μL of complete RPMI medium and incubated overnight. After 16-18 hours post-transfection, the assay plates were washed with PBS (Corning Inc., Corning, N.Y.), followed by addition of 80 μL/well of serum-free RPMI 1640 medium containing 1× Penicillin-Streptomycin solution, 1×MEM and 350 nL of DMSO or titrations of Compound 1. […] The assay plates were incubated for 5 hours at 37° C., followed by addition of One-Glo luciferase firefly reagent (Promega, Madison, Wis.) at 1:1 volume/well and luminescence was measured in an EnVision Multilabel Plate Reader (PerkinElmer, Santa Clara, Calif.). The EC50 values were calculated from the fit of the dose-response curves to a four-parameter equation. […]

B16F10 lung metastases = experiment: B16F10 tail vein injection model, lung metastases; assay type: in vivo, mouse; conditions: Compound 1 40 mg/kg daily for 13 days ± anti-PD-L1 10 mg/kg
Protocol: Combination studies were performed by vivoPharm (Hummelstown, Pa., USA). All procedures used in the performance of these studies were carried out in accordance with vivoPharm's Standard Operating Procedures, with particular reference to US_SOPvP_EF0314 “General Procedures for Efficacy Studies.” CT26 colon carcinoma cells (1×10^6 cells/mouse in 100 μL, passage 2-3) were re-suspended in serum-free DMEM and implanted in the upper right flank of 11-12 week old female Balb/c mice (Charles River Laboratories). Mice were randomized into four groups of 10 using a matched pair distribution method based on tumor size for CT26. Treatment was initiated 12 days post-inoculation with mean tumor volume at start of dosing of 125.85 mm^3. Vehicle or Compound 1 (40 mg/kg) was administered by oral gavage daily for 26 days and isotype control or a reverse chimera anti-PD-L1 cloned from literature reports (e.g., Deng, R. et al. MAbs (2016), the content of which is incorporated herein by reference in entirety) and placed into a mouse IgG1 framework (10 mg/kg) was administered every 5 days for a total of six doses. Investigators were not blinded to treatment groups. […] Mice were sacrificed on Day 13 and lung metastases were quantified (small ≤1 mm, medium >1 mm and ≤3 mm, large >3 mm). No large lung metastases were detected.

off-target kinases [2] = biological target: off-target kinases (Homo sapiens, UniProt P00533, DEL746-750); experiment: SelectScreen Kinase Profiling, single point inhibition and IC50 for off-target kinases; assay type: biochemical; parameters: other: EGFR (ErbB1) d746-750; mutant y; 1000 μM; conditions: EGFR (ErbB1) d746-750, mutant y, LanthaScreen Binding
Chain of off-target kinases (Homo sapiens, UniProt P00533, DEL746-750) (P00533 with tags, fused parts or gaps DEL746-750): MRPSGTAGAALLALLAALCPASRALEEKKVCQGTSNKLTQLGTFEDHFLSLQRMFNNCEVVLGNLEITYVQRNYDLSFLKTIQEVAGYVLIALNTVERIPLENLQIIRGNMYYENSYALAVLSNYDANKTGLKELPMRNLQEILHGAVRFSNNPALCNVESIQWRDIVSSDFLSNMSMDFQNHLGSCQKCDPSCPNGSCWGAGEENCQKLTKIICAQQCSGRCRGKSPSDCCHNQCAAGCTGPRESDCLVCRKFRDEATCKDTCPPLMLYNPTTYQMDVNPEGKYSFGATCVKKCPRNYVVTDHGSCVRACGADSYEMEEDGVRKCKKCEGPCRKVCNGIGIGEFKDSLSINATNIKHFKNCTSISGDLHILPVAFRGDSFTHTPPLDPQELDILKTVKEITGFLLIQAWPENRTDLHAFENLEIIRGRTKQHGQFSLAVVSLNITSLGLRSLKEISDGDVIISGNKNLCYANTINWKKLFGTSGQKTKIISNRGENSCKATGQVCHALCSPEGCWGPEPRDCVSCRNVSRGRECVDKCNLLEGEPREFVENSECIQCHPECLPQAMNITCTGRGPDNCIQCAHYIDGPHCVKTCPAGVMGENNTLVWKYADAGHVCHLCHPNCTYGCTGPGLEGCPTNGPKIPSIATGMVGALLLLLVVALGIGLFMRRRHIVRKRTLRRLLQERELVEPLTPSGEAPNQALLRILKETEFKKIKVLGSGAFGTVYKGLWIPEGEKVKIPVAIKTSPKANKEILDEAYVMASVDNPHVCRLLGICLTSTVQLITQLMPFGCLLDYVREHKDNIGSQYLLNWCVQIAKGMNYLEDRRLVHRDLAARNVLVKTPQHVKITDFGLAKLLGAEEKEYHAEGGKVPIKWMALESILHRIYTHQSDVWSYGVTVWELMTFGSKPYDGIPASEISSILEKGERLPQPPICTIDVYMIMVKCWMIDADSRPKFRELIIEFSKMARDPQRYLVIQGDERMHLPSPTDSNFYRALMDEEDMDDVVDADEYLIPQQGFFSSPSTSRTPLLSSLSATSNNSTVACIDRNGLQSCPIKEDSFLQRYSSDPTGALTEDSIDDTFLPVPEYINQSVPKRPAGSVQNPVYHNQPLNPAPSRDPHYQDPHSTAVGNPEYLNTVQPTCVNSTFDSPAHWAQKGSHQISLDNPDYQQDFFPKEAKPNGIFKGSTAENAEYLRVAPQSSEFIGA
Protocol: as §1, with “(ISG54).” for “(ISG54). Transfection of the cells was allowed to take place for 6 hours, after which the cells were harvested by treatment with 0.25% trypsin EDTA (Corning Inc., Corning, N.Y.). Trypsinized cells were added to 384-well poly-d-lysine treated black clear bottom tissue culture assay plates (Greiner Bio-One GmbH, Kremsmünster, Austria) at a density of 20,000 cells/well in 80 μL of complete RPMI medium and incubated overnight. After 16-18 hours post-transfection, the assay plates were washed with PBS (Corning Inc., Corning, N.Y.), followed by addition of 80 μL/well of serum-free RPMI 1640 medium containing 1× Penicillin-Streptomycin solution, 1×MEM and 350 nL of DMSO or titrations of Compound 1.”

[3] = test system: human CD4+ and CD8+ T cells; experiment: IL-2 secretion by anti-CD3/anti-CD28 stimulated T cells; assay type: cell-based; conditions: dose-titration, 24 hours
Protocol: Freshly isolated human CD4+ and CD8+ T cells were obtained from AllCells (Alameda, Calif., USA). Cells were spun down and resuspended in serum free Xvivo15 media (Lonza Walkersville, Inc., Chicago, Ill., USA) supplemented with 5 ng/mL […] and incubated overnight at 37° C. Cells were plated on anti-CD3 coated plates (5 μg/mL OKT3, eBioscience, Dallas, Tex., USA, overnight) with 2 μg/mL anti-CD28 (eBioscience, Dallas, Tex., USA). Cells are treated in replicate plates with a dose-titration of Compound 1 for 24 hours for IL-2 and 96 hours for IFNγ. IL-2 and IFNγ in the supernatant were measured using single- or multi-plex immunoassay (Mesoscale Discovery, Rockville, Md., USA). Jurkat T cell leukemia cells (clone E61 obtained from ATCC) plated on anti-CD3 coated plates were treated with a dose titration of Compound 1 for 24 hours. IL-2 in the supernatant was measured as described above.

Compound `N#Cc1cc(-c2ncnc(Nc3ccc(N4CCN(C5COC5)CC4)cc3)n2)ccc1OC1CCOCC1` [Compound 1, 5-(4-((4-(4-(oxetan-3-yl)piperazin-1-yl)phenyl)amino)-1,3,5-triazin-2-yl)-2-((tetrahydro-2H-pyran-4-yl)oxy)benzonitrile] has an inhibition (off-target kinases [1]; read-out: % Inhibition 1) of 54%, an inhibition (off-target kinases [1]; read-out: % Inhibition 2) of 60% and an inhibition (off-target kinases [1]; read-out: % Inhibition Avg) of 57%. For the same compound, the “sensitization of B16F10 tail vein model to PD-L1 blockade (lung metastases)” value (B16F10 lung metastases) was “could not be sensitized”, the inhibition (off-target kinases [2]; read-out: % Inhibition 1) was 14% and the inhibition (off-target kinases [2]; read-out: % Inhibition 2) was 13%. For the same compound, the “secretion of IL-2 from purified CD4+ and CD8+ T cells” value [3] was “enhanced secretion”.
